Laboratory results from US20250313548A1 (Actio Biosciences, Inc., priority 2023, published 2025).

What follows are compounds tested against human, KCNT1 (Homo sapiens (Human), UniProt Q5JUK3) (assay: FLIPR Tl/K Flux Assay). Conditions: HEK293 cells stably expressing human KCNT1; Tl+ flux stimulated with EC80 of agonist Loxapine.
Type: cell-based
Outline: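 Inhibition values come from a Hill-equation fit of % inhibition versus log concentration, using normalized fluorescence (Fmax/Fmin) over a 160 s read. The read followed stimulation with Tl+ plus EC80 agonist loxapine after 30 min compound pre-incubation at 25 °C. Cells were KCNT1-expressing HEK293, dye-loaded 1 h in pH 7.4 HEPES/HBSS with 5 mM probenecid.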

human, KCNT1, sequence (Q5JUK3 whole entry): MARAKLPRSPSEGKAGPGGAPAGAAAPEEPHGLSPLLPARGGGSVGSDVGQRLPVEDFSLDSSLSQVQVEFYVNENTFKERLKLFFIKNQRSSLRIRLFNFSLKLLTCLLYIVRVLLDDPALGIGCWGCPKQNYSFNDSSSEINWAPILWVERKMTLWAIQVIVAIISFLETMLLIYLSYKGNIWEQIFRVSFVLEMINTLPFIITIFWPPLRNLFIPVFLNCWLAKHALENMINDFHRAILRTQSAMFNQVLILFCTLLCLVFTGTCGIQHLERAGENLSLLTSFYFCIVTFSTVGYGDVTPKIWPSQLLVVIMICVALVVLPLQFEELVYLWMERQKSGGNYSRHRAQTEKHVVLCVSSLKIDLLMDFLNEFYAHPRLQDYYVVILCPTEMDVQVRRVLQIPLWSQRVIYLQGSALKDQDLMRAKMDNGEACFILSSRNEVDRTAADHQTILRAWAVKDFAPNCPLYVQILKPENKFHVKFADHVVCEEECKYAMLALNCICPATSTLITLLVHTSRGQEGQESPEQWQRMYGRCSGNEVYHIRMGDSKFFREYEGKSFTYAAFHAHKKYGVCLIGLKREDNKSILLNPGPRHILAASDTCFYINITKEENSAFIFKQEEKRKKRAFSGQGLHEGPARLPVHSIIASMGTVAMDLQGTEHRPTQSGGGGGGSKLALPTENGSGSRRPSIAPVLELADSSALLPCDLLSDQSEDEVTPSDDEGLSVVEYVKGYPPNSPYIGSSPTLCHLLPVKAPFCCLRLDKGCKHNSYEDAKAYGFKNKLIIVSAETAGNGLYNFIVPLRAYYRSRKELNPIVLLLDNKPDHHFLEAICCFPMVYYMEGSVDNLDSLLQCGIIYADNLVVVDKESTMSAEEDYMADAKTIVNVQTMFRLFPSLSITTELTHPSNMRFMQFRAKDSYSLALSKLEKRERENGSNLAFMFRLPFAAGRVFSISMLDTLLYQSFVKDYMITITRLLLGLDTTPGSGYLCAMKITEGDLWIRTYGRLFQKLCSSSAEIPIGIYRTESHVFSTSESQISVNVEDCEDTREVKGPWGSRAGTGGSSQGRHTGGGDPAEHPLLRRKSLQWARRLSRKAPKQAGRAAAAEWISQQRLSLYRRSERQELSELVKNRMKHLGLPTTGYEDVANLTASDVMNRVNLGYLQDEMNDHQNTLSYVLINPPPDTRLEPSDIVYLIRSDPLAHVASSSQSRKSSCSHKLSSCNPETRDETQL

`Cn1nc(C2CC2)cc1C(=O)N[C@H]1CCCn2nc(-c3ccnc(C(F)(F)F)c3)cc21` [Compound I-347a] and `Cn1nc(C2CCC2)cc1C(=O)N[C@H]1CCCn2nc(-c3ccnc(C(F)(F)F)c3)cc21` [Compound I-362a] cannot be ordered by IC50: < 250 nM for the first, < 250 nM for the second.

`Cn1nc(C(F)F)cc1C(=O)N[C@H]1CCCn2nc(-c3ccnc(C(F)(F)F)c3)cc21` [Compound I-348a] and `CC(C)c1cc(C(=O)N[C@H]2CCCn3nc(-c4ccnc(C(F)(F)F)c4)cc32)n(C)n1` [Compound I-350a] cannot be ordered by IC50: < 250 nM for the first, < 250 nM for the second.

`N#Cc1ccc(C(=O)N[C@H]2CCCn3nc(-c4ccnc(C(F)(F)F)c4)cc32)cc1` [Compound I-349a] and `O=C(N[C@H]1CCCn2nc(-c3ccnc(C(F)(F)F)c3)cc21)c1ccc2ccnn2c1` [Compound I-400a] cannot be ordered by IC50: < 250 nM for the first, < 250 nM for the second.

`Cn1nc(-c2ccccc2)cc1C(=O)N[C@H]1CCCn2nc(-c3ccnc(C(F)(F)F)c3)cc21` [Compound I-351a] and `Cn1nc(C(C)(F)F)cc1C(=O)N[C@H]1CCCn2nc(-c3ccnc(C(F)(F)F)c3)cc21` [Compound I-363a] cannot be ordered by IC50: < 250 nM for the first, < 250 nM for the second.

`O=C(N[C@H]1CCCn2nc(-c3ccnc(C(F)(F)F)c3)cc21)c1cc(Cl)cc(C(F)(F)F)c1` [Compound I-352a] and `O=C(N[C@H]1CCCCn2nc(-c3ccnc(C(F)(F)F)c3)cc21)c1cc(Cl)cc(C(F)(F)F)c1` [Compound I-387a] cannot be ordered by IC50: < 250 nM for the first, < 250 nM for the second.

First: Cc1c(-c2ccnc(C(F)(F)F)c2)nn2c1[C@H](NC(=O)c1cc(C(F)(F)F)nn1C)CCC2 [Compound I-353b]
Second: Cn1nc(C(F)(F)F)cc1C(=O)N[C@H]1CCCCn2nc(-c3ccnc(C(F)(F)F)c3)cc21 [Compound I-385a]
The IC50 of the first is higher: 500 to 1000 nM for the first, < 250 nM for the second.

`COc1cc(-c2cc3n(n2)CCC[C@@H]3NC(=O)c2cc(Cl)cc(C(F)(F)F)c2)ccn1` [Compound I-354a] and `COc1cc(-c2cc3n(n2)CCC[C@@H]3NC(=O)c2cccc(C(F)(F)F)c2)ccn1` [Compound I-355a] cannot be ordered by IC50: < 250 nM for the first, < 250 nM for the second.

First: COc1cc(-c2cc3n(n2)CCC[C@@H]3NC(=O)c2cccc(C(F)(F)F)n2)ccn1 [Compound I-356a]
Second: COc1cc(-c2cc3n(n2)CCC[C@@H]3NC(=O)c2ccnc(C(F)(F)F)c2)ccn1 [Compound I-364a]
The IC50 of the first is higher: 250 to 500 nM for the first, < 250 nM for the second.

Compared with `COc1cc(-c2cc3n(n2)CCC[C@@H]3NC(=O)c2cncc(C(F)(F)F)c2)ccn1` [Compound I-357a], `COc1cc(-c2cc3n(n2)CCC[C@@H]3NC(=O)c2cc(C(F)(F)F)ccn2)ccn1` [Compound I-365a] is higher in IC50: < 250 nM for the first, 250 to 500 nM for the second. The first is the more potent here.

First: Cc1nc(C(F)(F)F)sc1C(=O)N[C@H]1CCCn2nc(-c3ccnc(C(F)(F)F)c3)cc21 [Compound I-358a]
Second: Cc1nc(C(F)(F)F)c(C(=O)N[C@H]2CCCn3nc(-c4ccnc(C(F)(F)F)c4)cc32)s1 [Compound I-406a]
The IC50 of the first is lower: < 250 nM for the first, 250 to 500 nM for the second. The first is the more potent here.

Compared with `Cc1c(-n2cc3c(n2)CCC[C@@H]3NC(=O)c2cc(C(F)(F)F)nn2C)ccnc1C(F)(F)F` [Compound I-359a], `Cc1c(C(F)(F)F)nn(C)c1C(=O)N[C@H]1CCc2nn(-c3ccnc(C(F)(F)F)c3)cc21` [Compound I-386a] is higher in IC50: < 250 nM for the first, > 1000 nM for the second. The first is the more potent here.

Compared with `CCOc1cc(-n2cc3c(n2)CCCC[C@@H]3NC(=O)c2cc(C(F)(F)F)nn2C)ccn1` [Compound I-360a], `CCOc1cc(-n2cc3c(n2)CCCC[C@H]3NC(=O)c2cc(C(F)(F)F)nn2C)ccn1` [Compound I-360b] is higher in IC50: < 250 nM for the first, > 1000 nM for the second.

Going from `CCOc1cc(-n2cc3c(n2)CCCC[C@@H]3NC(=O)c2cccc(C)c2)ccn1` [Compound I-361a] to `CCOc1cc(-n2cc3c(n2)CCCC[C@H]3NC(=O)c2cccc(C)c2)ccn1` [Compound I-361b], the IC50 rises from < 250 nM to > 1000 nM. The first is the more potent here.

`COc1cc(-c2cc3n(n2)CCC[C@@H]3NC(=O)c2cc(C(F)(F)F)nn2C)ccn1` [Compound I-366a] and `Cn1nc(C(F)(F)F)cc1C(=O)N[C@H]1CCCn2nc(-c3ccnc(OC(F)F)c3)cc21` [Compound I-378a] cannot be ordered by IC50: < 250 nM for the first, < 250 nM for the second.

`CC(C)Oc1cc(C(=O)N[C@H]2CCCn3nc(-c4ccnc(C(F)(F)F)c4)cc32)n(C)n1` [Compound I-367a] and `Cn1nc(OC2CC2)cc1C(=O)N[C@H]1CCCn2nc(-c3ccnc(C(F)(F)F)c3)cc21` [Compound I-370a] cannot be ordered by IC50: < 250 nM for the first, < 250 nM for the second.

Compared with `O=C(N[C@H]1CCCn2nc(-c3ccnc(C(F)(F)F)c3)cc21)c1cc2n(n1)CCC2` [Compound I-368a], `O=C(N[C@H]1CCCn2nc(-c3ccnc(C(F)(F)F)c3)cc21)c1ccn(C(F)(F)F)n1` [Compound I-382a] is lower in IC50: > 1000 nM for the first, < 250 nM for the second. The second is the more potent here.

First: Cn1nc(C2CC2)cc1C(=O)N[C@H]1CCCCc2nn(-c3ccnc(C(F)(F)F)c3)cc21 [Compound I-369a]
Second: Cn1nc(C2CC2)cc1C(=O)N[C@@H]1CCCCc2nn(-c3ccnc(C(F)(F)F)c3)cc21 [Compound I-369b]
The IC50 of the first is lower: < 250 nM for the first, > 1000 nM for the second.

First: O=C(N[C@H]1CCCn2nc(-c3ccnc(C(F)(F)F)c3)cc21)c1cc(C(F)(F)F)nn1C1CC1 [Compound I-371a]
Second: Cn1nc(C(F)(F)F)cc1C(=O)N[C@@H]1CCCCn2nc(-c3ccnc(C(F)(F)F)c3)cc21 [Compound I-385b]
The IC50 of the first is lower: < 250 nM for the first, 250 to 500 nM for the second. The first is the more potent here.

First: Cc1cc(C)cc(C(=O)N[C@H]2CCc3nn(-c4ccnc(C(F)(F)F)c4)cc32)c1 [Compound I-372a]
Second: Cc1cc(C)cc(C(=O)N[C@@H]2CCc3nn(-c4ccnc(C(F)(F)F)c4)cc32)c1 [Compound I-372b]
The IC50 of the first is lower: < 250 nM for the first, 500 to 1000 nM for the second.

`Cc1cc(C(=O)N[C@H]2CCc3nn(-c4ccnc(C(F)(F)F)c4)cc32)cc(C(F)(F)F)c1` [Compound I-373a] and `Cc1cc(C(=O)N[C@@H]2CCc3nn(-c4ccnc(C(F)(F)F)c4)cc32)cc(C(F)(F)F)c1` [Compound I-373b] cannot be ordered by IC50: < 250 nM for the first, < 250 nM for the second.

`Cn1nc(C(F)(F)F)cc1C(=O)N[C@H]1CCCc2nn(-c3ccnc(C#N)c3)cc21` [Compound I-375a] and `Cn1nc(C(F)(F)F)cc1C(=O)N[C@H]1CCCc2ncc(-c3ccnc(C(F)(F)F)c3)cc21` [Compound I-383a] cannot be ordered by IC50: > 1000 nM for the first, > 1000 nM for the second.

Compared with `COc1cc(-n2cc3c(n2)CCCC[C@@H]3NC(=O)c2cccc(C)c2)ccn1` [Compound I-376a], `COc1cc(-n2cc3c(n2)CCCC[C@H]3NC(=O)c2cccc(C)c2)ccn1` [Compound I-376b] is higher in IC50: < 250 nM for the first, > 1000 nM for the second.

`Cn1nc(C(F)(F)F)cc1C(=O)N[C@H]1CCCn2nc(-c3ccnc(C4CCC4)c3)cc21` [Compound I-377a] and `Cn1nc(C2CC2)cc1C(=O)N[C@H]1CCCCn2nc(-c3ccnc(C(F)(F)F)c3)cc21` [Compound I-388a] cannot be ordered by IC50: < 250 nM for the first, < 250 nM for the second.

`Cn1nc(C(F)(F)F)cc1C(=O)N[C@H]1CCCn2nc(-c3ccnc(C(C)(F)F)c3)cc21` [Compound I-379a] and `Cn1nc(C(F)(F)F)cc1C(=O)N[C@H]1CCCn2nc(-c3ccnc(OC(F)(F)F)c3)cc21` [Compound I-391a] cannot be ordered by IC50: < 250 nM for the first, < 250 nM for the second.

`CC(C)n1nc(C(F)(F)F)cc1C(=O)N[C@H]1CCCn2nc(-c3ccnc(C(F)(F)F)c3)cc21` [Compound I-381a] and `Cn1nc(CC(F)(F)F)cc1C(=O)N[C@H]1CCCn2nc(-c3ccnc(C(F)(F)F)c3)cc21` [Compound I-389a] cannot be ordered by IC50: < 250 nM for the first, < 250 nM for the second.

`Cn1nc(C(F)(F)F)cc1C(=O)N[C@@H]1CCCc2ncc(-c3ccnc(C(F)(F)F)c3)cc21` [Compound I-383b] and `COc1cc(-c2cc3c(cn2)CCCC3NC(=O)c2cc(C(F)(F)F)nn2C)ccn1` (stereo not shown) [Compound I-393] cannot be ordered by IC50: > 1000 nM for the first, > 1000 nM for the second.

`Cc1cc(F)cc(C(=O)N[C@@H]2CCc3nn(-c4ccnc(C(F)(F)F)c4)cc32)c1` [Compound I-384b] and `O=C(N[C@H]1CCc2nn(-c3ccnc(C(F)(F)F)c3)cc21)c1cc(F)cc(Cl)c1` [Compound I-396a] cannot be ordered by IC50: < 250 nM for the first, < 250 nM for the second.

First: CCc1cc(-c2cc3n(n2)CCC[C@@H]3NC(=O)c2cc(C(F)(F)F)nn2C)ccn1 [Compound I-390a]
Second: Cn1ncc(C(=O)N[C@H]2CCCn3nc(-c4ccnc(C(F)(F)F)c4)cc32)c1Cl [Compound I-407a]
The IC50 of the first is lower: < 250 nM for the first, 250 to 500 nM for the second.

Compared with `O=C(N[C@H]1CCCc2cnc(-c3ccnc(C(F)(F)F)c3)cc21)c1cccc(C(F)(F)F)c1` [Compound I-392a], `Cc1cccc(C(=O)N[C@H]2CCCc3cnc(-c4ccnc(C(F)(F)F)c4)cc32)c1` [Compound I-394a] is higher in IC50: < 250 nM for the first, 250 to 500 nM for the second.

First: CS(=O)(=O)c1cccc(C(=O)N[C@H]2CCc3nn(-c4ccnc(C(F)(F)F)c4)cc32)c1 [Compound I-395a]
Second: O=C(N[C@H]1CCCn2nc(-c3ccnc(C(F)(F)F)c3)cc21)c1cccc(F)c1F [Compound I-405a]
The IC50 of the first is higher: > 1000 nM for the first, < 250 nM for the second.

Going from `Cc1cc(C(=O)N[C@H]2CCCn3nc(-c4ccnc(C(F)(F)F)c4)cc32)cn(C)c1=O` [Compound I-397a] to `O=C(N[C@H]1CCCn2nc(-c3ccnc(C(F)(F)F)c3)cc21)c1cnn(C(F)(F)F)c1` [Compound I-399a], the IC50 falls from > 1000 nM to < 250 nM. The second is the more potent here.

Compared with `O=C(N[C@H]1CCCn2nc(-c3ccnc(C(F)(F)F)c3)cc21)c1cn(C2CC2)nc1C(F)(F)F` [Compound I-398a], `O=C(N[C@H]1CCCn2nc(-c3ccnc(C(F)(F)F)c3)cc21)c1cn(C2CC2)nn1` [Compound I-401a] is higher in IC50: < 250 nM for the first, > 1000 nM for the second.

`Cc1cc(C(=O)N[C@H]2CCCn3nc(-c4ccnc(C(F)(F)F)c4)cc32)nc(C2CC2)n1` [Compound I-402a] and `O=C(N[C@H]1CCCn2nc(-c3ccnc(C(F)(F)F)c3)cc21)c1cnn2cc(F)ccc12` [Compound I-408a] cannot be ordered by IC50: < 250 nM for the first, < 250 nM for the second.

`O=C(N[C@H]1CCCn2nc(-c3ccnc(C(F)(F)F)c3)cc21)c1ccnn1CC(F)F` [Compound I-403a] and `O=C(N[C@H]1CCCn2nc(-c3ccnc(C(F)(F)F)c3)cc21)c1ccc(F)c(C(F)(F)F)c1` [Compound I-410a] cannot be ordered by IC50: < 250 nM for the first, < 250 nM for the second.

`N#Cc1cc(OC(F)(F)F)cc(C(=O)N[C@H]2CCCn3nc(-c4ccnc(C(F)(F)F)c4)cc32)c1` [Compound I-404a] and `O=C(N[C@H]1CCCn2nc(-c3ccnc(C(F)(F)F)c3)cc21)c1ccc(F)c(OC(F)(F)F)c1` [Compound I-411a] cannot be ordered by IC50: < 250 nM for the first, < 250 nM for the second.
